IC50, antibacterial activity and solubility data for one compound are collected here from patent US8217072B2, “Salinosporamides and methods for use thereof” (The Regents of the University of California, priority 2003, dated 2012).

The subject of data set [1] is Candida albicans(amphoterocin B resistant). Briefly: Antifungal screening, Candida albicans (amphoterocin B resistant). The arrangement: key: NSA = no significant activity. It is filed as cell-based.
In data set [2] the test system is Staphylococcus aureus (methecillin resistant). Briefly: Antibacterial screening, Staphylococcus aureus. It is filed as cell-based. More on the design: key to IC50: NSA = no significant activity.
A short description of data set [3]: Solubility in organic solvents. Conditions: CHCl3, methanol, and other polar solvents like DMSO, acetone, acetonitrile, benzene, pyridine, N,N-dimethylformamide.
The subject of data set [4] is Enterococcus faecium (vanomycin resistant). Nature of the data set: Antibacterial screening, Enterococcus faecium. More on the design: key to IC50: NSA = no significant activity. Format: cell-based.

On to `C[C@@]12OC(=O)[C@]1([C@@H](O)[C@@H]1C=CCCC1)NC(=O)[C@@H]2CCCl` [Salinosporamide A], for which the IC50 entry in data set [1], in data set [2] (methecillin resistant) and in data set [4] (vanomycin resistant) was “NSA*” in each case. In addition, the antibacterial activity result in data set [2] and in data set [4] was “no antibacterial activity” throughout. Also, the solubility entry in data set [3] is listed as “soluble”.
